In PubChem BioAssay (NCI) one finds TGI and GI50 data, which are given here for 8 molecules.

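Values below derive from 48-hour exposures of cells grown in 96-well plates, with endpoints linearly interpolated between the two concentrations bracketing the appropriate inhibition level. GI50 is the concentration that inhibits growth by half. TGI marks complete inhibition of growth.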

Among the test systems are KM12 colon; ACHN renal; UACC-62 melanoma; OVCAR-4 ovarian; MDA-MB-435; A498 renal; OVCAR-3 ovarian; RXF 393 renal; RPMI-8226 leukemia; HL-60(TB) leukemia; SF-268 CNS; LOX IMVI melanoma; MOLT-4 leukemia.
Holding throughout (assay): DTP human tumour cell line panel, 48 h

A word on the TGI: it is the concentration at which net growth stops. Higher therefore signals lower sensitivity of the cells. With `Cc1cn(C2CC(N)C(C(=O)NCC(=O)O)O2)c(=O)[nH]c1=O` (stereo unspecified), the TGI in the assay with KM12 colon, in the assay with ACHN renal, in the assay on UACC-62 melanoma, in the assay with OVCAR-4 ovarian, in the assay on MDA-MB-435 and in the assay on A498 renal was > 100 µM throughout. Besides, the TGI in the assay with OVCAR-3 ovarian, in the assay with RXF 393 renal, in the assay with RPMI-8226 leukemia, in the assay on HL-60(TB) leukemia, with SF-268 CNS and in the assay on LOX IMVI melanoma was > 100 µM in each case. Further, the TGI in the assay on MOLT-4 leukemia is > 100 µM.

Broadly, the GI50 is the concentration at which growth is held to half of that of the control. On to `COc1ccc(-c2ccc(-c3ccc(C(=N)N)nc3)s2)cc1Cl`, for which the GI50 was 1.81 µM with KM12 colon; 1.77 µM in the assay with ACHN renal; 1.74 µM in the assay on OVCAR-4 ovarian; 1.73 µM in the assay with MDA-MB-435; 1.83 µM in the assay with OVCAR-3 ovarian; 1.76 µM with RXF 393 renal. Also, the GI50 in the assay on RPMI-8226 leukemia is 2.25 µM. Also, the TGI with KM12 colon came to 3.32 µM; with ACHN renal it was 3.15 µM; in the assay with OVCAR-4 ovarian, 3.25 µM; with MDA-MB-435, 3.12 µM; in the assay on OVCAR-3 ovarian, 3.24 µM; in the assay with RXF 393 renal it was 3.23 µM. The molecule also came in with a TGI in the assay with RPMI-8226 leukemia of 4.9 µM.

As to `O=S(OC12CC3CC(CC(C3)C1)C2)c1cc(Cl)cc(Cl)c1OCc1ccccc1` (stereo unspecified), the TGI with KM12 colon, in the assay with ACHN renal, with UACC-62 melanoma, in the assay with OVCAR-4 ovarian, in the assay on A498 renal and in the assay on OVCAR-3 ovarian was > 100 µM in each case. In addition, the TGI with RXF 393 renal, in the assay on HL-60(TB) leukemia, in the assay with SF-268 CNS, with LOX IMVI melanoma and in the assay with MOLT-4 leukemia was > 100 µM each time.

For the molecule `C=CCN1C(=O)/C(=C/c2ccco2)N=C1SC1OC(COC(C)=O)C(OC(C)=O)C(OC(C)=O)C1OC(C)=O` (stereo unspecified), the TGI in the assay with KM12 colon, with ACHN renal, in the assay on UACC-62 melanoma, in the assay on OVCAR-4 ovarian, with MDA-MB-435 and in the assay with A498 renal was > 100 µM throughout. Further, the TGI with OVCAR-3 ovarian is > 100 µM; in the assay with RXF 393 renal it was > 100 µM; in the assay with RPMI-8226 leukemia, > 100 µM; with HL-60(TB) leukemia, 53.4 µM; with LOX IMVI melanoma it was > 100 µM; with MOLT-4 leukemia, > 100 µM.

As to `CC(=O)OCC1OC(OCCCCCCO)C(OC(C)=O)C(OC(C)=O)C1OC(C)=O` (stereo unspecified), the TGI in the assay on KM12 colon, in the assay on ACHN renal, with UACC-62 melanoma, with OVCAR-4 ovarian, with MDA-MB-435 and in the assay on A498 renal was > 100 µM in each case. Moreover, the TGI in the assay with OVCAR-3 ovarian, with RXF 393 renal, with RPMI-8226 leukemia, with HL-60(TB) leukemia, in the assay on SF-268 CNS and with LOX IMVI melanoma was > 100 µM in each case. The TGI in the assay on MOLT-4 leukemia was > 100 µM.

Consider `O=[N+]([O-])c1ccccc1S(=O)(=O)c1ccccc1`, for which the TGI in the assay on KM12 colon, in the assay on ACHN renal, with UACC-62 melanoma, in the assay with OVCAR-4 ovarian, with A498 renal and in the assay on OVCAR-3 ovarian was > 100 µM in each case. For the same molecule, the TGI with RXF 393 renal, with RPMI-8226 leukemia, in the assay with HL-60(TB) leukemia, in the assay with SF-268 CNS, with LOX IMVI melanoma and with MOLT-4 leukemia was > 100 µM each time.

In the case of `Cc1ccc(NC(=O)C(Cc2c[nH]c3ccccc23)NC(=O)Oc2ccccc2)cc1C` (stereo unspecified), the TGI in the assay on KM12 colon is > 100 µM; in the assay with ACHN renal, > 100 µM; with UACC-62 melanoma, > 100 µM; in the assay with OVCAR-4 ovarian, > 100 µM; in the assay on MDA-MB-435, > 100 µM; in the assay on A498 renal, 88.4 µM. Moreover, the concentration for total growth inhibition (TGI) in the assay with OVCAR-3 ovarian is > 100 µM; in the assay on RXF 393 renal, > 100 µM; in the assay with RPMI-8226 leukemia it was 80.9 µM; in the assay on HL-60(TB) leukemia, > 100 µM; with SF-268 CNS, > 100 µM; in the assay with LOX IMVI melanoma, > 100 µM. In addition, the TGI in the assay on MOLT-4 leukemia was > 100 µM.

For `CC1(C)C(=O)c2ccccc2OC1N1CCN(C2Oc3ccccc3C(=O)C2(C)C)CC1` (stereo unspecified), the concentration for total growth inhibition (TGI) in the assay on KM12 colon, with ACHN renal, in the assay on UACC-62 melanoma, with OVCAR-4 ovarian, in the assay on MDA-MB-435 and with A498 renal was > 100 µM each time. The TGI in the assay with OVCAR-3 ovarian, in the assay on RXF 393 renal, in the assay on RPMI-8226 leukemia, in the assay on HL-60(TB) leukemia, in the assay on SF-268 CNS and in the assay with LOX IMVI melanoma was > 100 µM in each case. Also, the TGI with MOLT-4 leukemia was > 100 µM.
